# Test results published in patent US6498150B2, “Low molecular weight cell, bone marrow and immune stimulants” (priority 1995, dated 2002).
# “And” between values parts separate entries of the source, which are not always exact repeats. Equal entries are not always repeated. Where two headings read alike, the source gives them in different places. Marks after values point to notes of the source that are not given here.
# Assays:
# anti-Pn14 antibodies = test system: anti-Pn14 antibodies; set-up: species or system BALB/c female mice; details: mouse, in vivo
# CD34+ cells = assay: Blood cell stimulation: CD34+ progenitor suspension culture, lineage marker ELISA; assay type: cell-based, human; details: for neutrophils, Percent difference (relative to control): CD15; for red blood cells, Percent difference (relative to control): glycophorin A
# [1] = test system: delayed type hypersensitivity (DTH); assay type: in vivo, mice
# [2] = test system: Hybridoma cells (ATCC #CRL-8014, OKT-8); assay: Production of monoclonal antibodies from hybridomas (sandwich ELISA); assay type: cell-based; details: 200 pg/ml
# [3] = test system: CHO cells containing a cloned gene for tissue plasminogen activator (tPA); assay: Stimulation of tPA production from CHO cells (IMUBIND total tPA ELISA); assay type: cell-based; details: for Culture Cell Density / Supernatant Concentration (tPA) / Supernatant Concentration relative to control / tPA per cell / tPA per cell relative to control / ELISA Optical Density: 1 pg/ml; for Culture Cell Density: cell numbers per milliliter, trypan-blue, hemacytometer; for Supernatant Concentration (tPA): from standard curve; for ELISA Optical Density: supernatant at end of log phase
# [4] = Study 1: 1 ng/ml compound, 2000 cells per well, 10 days, CD14
# [5] = Study 1: 1 ng/ml compound, 2000 cells per well, 10 days
# [6] = Study 2: 1 ug/ml, 1700 cells per well
molecule,measurement,setting,value
"O=C(CCNC(=O)OCc1ccccc1)NCCOP(=O)(O)O [Taurox-BOP, N-carboxybenzoxy-β-alanyl-ethanolamine phosphate]","Mean Change in O.D. from pretest, Day 4 after injection with antigen",anti-Pn14 antibodies,0
same,"Mean Change in O.D. from pretest, Day 14 after injection with antigen",anti-Pn14 antibodies,366
same,"Mean Change in O.D. from pretest, Day 14 after injection with antigen",anti-Pn14 antibodies; ip,877 and 515
same,"monocytes, Percent difference (relative to control)",CD34+ cells; [4],18%
same,"neutrophils, Percent difference (relative to control)",CD34+ cells; [5],21%
same,"red blood cells, Percent difference (relative to control)",CD34+ cells; [5],0%
same,"CD34 cells, Percent difference (relative to control)",CD34+ cells; [6],33%
same,"RBC, Percent difference (relative to control)",CD34+ cells; [6],55%
same,"monocytes, Percent difference (relative to control)",CD34+ cells; [6],9%
"NCCC(=O)NCCS(=O)(=O)O [Taurox-S, β-alanyl-taurine]","Mean Change in O.D. from pre-boost, 10 days after boost with UNCONJUGATED polysaccharide",anti-Pn14 antibodies,204
same,"Mean Change in O.D. from pretest, Day 4 after injection with antigen",anti-Pn14 antibodies,2.9
same,"Mean Change in O.D. from pretest, Day 14 after injection with antigen",anti-Pn14 antibodies,697
same,"Mean Change in O.D. from pretest, Day 14 after injection with antigen",anti-Pn14 antibodies; ip,681 and 671
same,"monocytes, Percent difference (relative to control)",CD34+ cells; [4],47%
same,"neutrophils, Percent difference (relative to control)",CD34+ cells; [5],55%
same,"red blood cells, Percent difference (relative to control)",CD34+ cells; [5],50%
"O=C(CCNC(=O)OCc1ccccc1)NCCS(=O)(=O)O [Taurox-SB, N-carboxybenzoxy-β-alanyl-taurine]","Mean Change in O.D. from pre-boost, 10 days after boost with UNCONJUGATED polysaccharide",anti-Pn14 antibodies,139
same,"Mean Change in O.D. from pretest, Day 4 after injection with antigen",anti-Pn14 antibodies,1.1
same,"Mean Change in O.D. from pretest, Day 14 after injection with antigen",anti-Pn14 antibodies,697
same,"Mean Change in O.D. from pretest, Day 4 after injection with antigen",anti-Pn14 antibodies; ip,6.2 and 3.9
same,"Mean Change in O.D. from pretest, Day 14 after injection with antigen",anti-Pn14 antibodies; ip,705 and 483
same,moderate responders compared with saline injected group,[1]; 24 hrs,more moderate responders than the saline injected group
same,Percent of Animals with Major DTH at 24 hrs,"[1]; mouse, in vivo",50* Percent
same,Percent of Animals with Major DTH at 48 hrs.,"[1]; mouse, in vivo",50%
same,Percent of Animals with Major DTH at either 24 or 48 hrs.,"[1]; mouse, in vivo",60%
same,Percent of Animals with Moderate DTH at 24 hrs,"[1]; mouse, in vivo",70%
same,moderate response rate at 24 hrs,"[1]; mouse, in vivo",eight of ten
same,total treated animals with major immune response at 24 hours,"[1]; mouse, in vivo",14 animals
same,treated animals with major response at either 24 or 48 hours post challenge,"[1]; mouse, in vivo",21 animals
same,Percent of Animals with Major DTH at 24 hrs,"[1]; mouse, in vivo, iv",20% and 10%
same,Percent of Animals with Major DTH at 48 hrs.,"[1]; mouse, in vivo, iv",20% and 10%
same,Percent of Animals with Moderate DTH at 24 hrs,"[1]; mouse, in vivo, iv",70% and 60% and 50% and 80* Percent and 40%
same,"Increase of 1 gG, μg/ml over 0-control",[2],316%
same,"Increase of IgG, pg/cell over 0-control",[2],93%
same,"IgG, pg/cell",[2]; protein-free media,80.6 pg/cell
same,1 gG,"[2]; protein-free media, Mab in culture aliquots",50 µg/mL
same,"monocytes, Percent difference (relative to control)",CD34+ cells; [4],15%
same,"neutrophils, Percent difference (relative to control)",CD34+ cells; [5],0%
same,"red blood cells, Percent difference (relative to control)",CD34+ cells; [5],0%
same,Culture Cell Density,[3]; listed as #1,4.0 × 10^5
same,Culture Cell Density,[3]; listed as #2,4.8 × 10^5
same,Culture Cell Density,[3]; listed as #3,5.2 × 10^5
same,Supernatant Concentration (tPA),[3]; listed as #1,"1,492.8 nanograms/ml"
same,Supernatant Concentration (tPA),[3]; listed as #2,"1,389.4 nanograms/ml"
same,Supernatant Concentration (tPA),[3]; listed as #3,"2,113.0 nanograms/ml"
same,Supernatant Concentration relative to control,[3]; listed as #1,[3.5 × control]
same,tPA per cell,[3]; listed as #1,3.73 Picograrns
same,tPA per cell relative to control,[3]; listed as #1,[1.9 × control]
same,Supernatant Concentration relative to control,[3]; listed as #2,[3.3 × control]
same,tPA per cell,[3]; listed as #2,2.89 Picograrns
same,Supernatant Concentration relative to control,[3]; listed as #3,[5.0 × control]
same,tPA per cell,[3]; listed as #3,4.06 Picograrns
same,tPA per cell relative to control,[3]; listed as #3,[2.1 × control]
same,ELISA Optical Density,[3]; listed as #1,0.332
same,ELISA Optical Density,[3]; listed as #2,0.317
same,ELISA Optical Density,[3]; listed as #3,0.422
same,alteration of per-cell production of tPA,[3]; Table 2,about 2 fold
N-carboxybenzoxy-β-alanyl aminoethylphosphonic acid [Taurox-BP],"Mean Change in O.D. from pre-boost, 10 days after boost with UNCONJUGATED polysaccharide",anti-Pn14 antibodies,187
same,"Mean Change in O.D. from pretest, Day 4 after injection with antigen",anti-Pn14 antibodies,3.3
same,"Mean Change in O.D. from pretest, Day 14 after injection with antigen",anti-Pn14 antibodies,924
same,"monocytes, Percent difference (relative to control)",CD34+ cells; [4],18%
same,"neutrophils, Percent difference (relative to control)",CD34+ cells; [5],14%
same,"red blood cells, Percent difference (relative to control)",CD34+ cells; [5],1%
same,"CD34 cells, Percent difference (relative to control)",CD34+ cells; [6],0%
same,"RBC, Percent difference (relative to control)",CD34+ cells; [6],4%
same,"monocytes, Percent difference (relative to control)",CD34+ cells; [6],2%
